Converted amounts (≈) assume the structure as drawn.
Experiments:
[1] = Displacement of (2S)-N-(2-phenylphenyl)-1-[2-[1-(tritritiomethyl)benzimidazol-2-yl]sulfanylacetyl]pyrrolidine-2-carboxamide from human OX1 receptor Ile408-Val mutant expressed on CHO cell membrane measured after 3 hrs by TopCount method; format: cell membranes
Orexin receptor type 2 [2] = biological target: T1, Orexin receptor type 2 (Homo sapiens, UniProt O43614); experiment: Displacement of (2S)-N-(2-pyrrol-1-ylphenyl)-1-[2-[1-(tritritiomethyl)benzimidazol-2-yl]sulfanylacetyl]pyrrolidine-2-carboxamide from human OX2 receptor expressed on CHO cell membrane measured after 3 hrs by TopCount method; format: cell membranes
T1 sequence (O43614 whole entry): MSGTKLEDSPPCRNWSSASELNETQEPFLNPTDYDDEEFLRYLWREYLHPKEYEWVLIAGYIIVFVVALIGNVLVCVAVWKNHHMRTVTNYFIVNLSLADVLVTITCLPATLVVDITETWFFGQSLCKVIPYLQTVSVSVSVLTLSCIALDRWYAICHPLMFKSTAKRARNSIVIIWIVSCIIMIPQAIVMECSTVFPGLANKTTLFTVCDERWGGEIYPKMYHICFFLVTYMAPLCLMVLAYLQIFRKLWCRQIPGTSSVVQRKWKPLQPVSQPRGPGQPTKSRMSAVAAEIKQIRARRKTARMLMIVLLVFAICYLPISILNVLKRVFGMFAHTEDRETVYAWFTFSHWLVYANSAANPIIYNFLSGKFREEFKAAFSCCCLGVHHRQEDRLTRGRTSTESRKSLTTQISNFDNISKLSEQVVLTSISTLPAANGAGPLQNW

CHO = experiment: Selectivity index, ratio of Ki for human OX2 receptor expressed on CHO cell membrane to Ki for Ile408-Val variant human OX1 receptor expressed on CHO cell membrane; format: cell-based
[3] = biological target: T2, Orexin/Hypocretin receptor type 1 (Homo sapiens) (UniProt O43613); experiment: Potency index, ratio of PE8 Ki to compound Ki for human OX1 receptor
T2 sequence (whole entry): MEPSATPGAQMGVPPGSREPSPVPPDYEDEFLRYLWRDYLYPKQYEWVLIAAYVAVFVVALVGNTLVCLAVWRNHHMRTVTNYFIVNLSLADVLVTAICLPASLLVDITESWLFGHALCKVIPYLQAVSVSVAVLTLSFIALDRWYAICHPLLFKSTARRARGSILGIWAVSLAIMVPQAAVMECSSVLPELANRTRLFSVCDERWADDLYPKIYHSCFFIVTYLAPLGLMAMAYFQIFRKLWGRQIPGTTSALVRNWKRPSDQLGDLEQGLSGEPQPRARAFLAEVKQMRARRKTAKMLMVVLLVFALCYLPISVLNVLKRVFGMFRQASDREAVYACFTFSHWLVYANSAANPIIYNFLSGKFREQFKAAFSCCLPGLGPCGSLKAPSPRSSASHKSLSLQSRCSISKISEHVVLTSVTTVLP

[4] = Aqueous solubility of the compound at pH 2; format: physicochemical; conditions: aqueous medium
[5] = Apparent permeability of the compound; format: ADME; conditions: not told
[6] = Half life in rhesus monkey at 2 mg/kg, iv or 10 mg/kg, po; format: ADME, organism-based, Macaca mulatta; conditions: in vivo
Orexin receptor type 2 [7] = biological target: T3, Orexin receptor type 2 (Rattus norvegicus, UniProt P56719); format: functional
T3 sequence (P56719 whole entry): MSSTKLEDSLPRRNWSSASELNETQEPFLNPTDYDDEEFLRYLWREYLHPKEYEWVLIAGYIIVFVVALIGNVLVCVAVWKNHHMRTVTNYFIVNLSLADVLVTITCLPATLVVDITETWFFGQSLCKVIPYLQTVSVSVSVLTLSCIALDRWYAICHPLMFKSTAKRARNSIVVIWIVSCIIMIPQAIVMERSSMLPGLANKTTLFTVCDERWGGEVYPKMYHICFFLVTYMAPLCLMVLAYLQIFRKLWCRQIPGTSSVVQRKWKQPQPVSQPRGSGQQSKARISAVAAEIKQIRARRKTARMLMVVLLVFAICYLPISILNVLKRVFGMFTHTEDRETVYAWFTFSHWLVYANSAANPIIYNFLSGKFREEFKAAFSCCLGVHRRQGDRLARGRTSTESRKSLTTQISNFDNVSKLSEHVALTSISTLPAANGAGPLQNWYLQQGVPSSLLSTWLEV
Description: Antagonist activity at rat OX2 receptor assessed as inhibition of Ala-6,12 orexin-A-induced calcium increase preincubated for 5 mins prior to Ala-6,12 orexin-A addition measured at 1 sec intervals for 1 min by Fluo-4AM dye-based FLIPR assay

[8] = Drug metabolism in rat liver microsomes assessed as oxidation of banzamide; format: ADME
Orexin receptor type 2 [9] = biological target: T1, Orexin receptor type 2; format: functional, cell-based, CHO
Description: Antagonist activity at human OX2 receptor expressed on CHO cell membrane assessed as inhibition of Ala-6,12 orexin-A-induced calcium increase preincubated for 5 mins prior to Ala-6,12 orexin-A addition measured at 1 sec intervals for 1 min by Fluo-4AM dye-based FLIPR assay

[10] = Intrinsic clearance in human liver microsomes; format: ADME; conditions: read-out: CLH
[11] = Protein binding in dog plasma; format: ADME, cell-free, Canis lupus familiaris; conditions: read-out: PPB (converted)
[12] = biological target: T2, Orexin/Hypocretin receptor type 1 (Homo sapiens); experiment: Binding affinity to OX1 receptor (unknown origin) assessed as dissociation rate constant
[13] = Protein binding in human plasma; format: ADME, cell-free; conditions: read-out: PPB (converted)
[14] = Selectivity index, ratio of IC50 for human OX1 receptor to IC50 for rat OX1 receptor
[15] = Oral bioavailability in rat at 10 mg/kg; format: ADME, organism-based; conditions: in vivo
[16] = Clearance in dog at 0.5 mg/kg, iv or 10 mg/kg, po; format: ADME, organism-based, Canis lupus familiaris; conditions: in vivo
[17] = Antagonist activity at human OX1 receptor Ile408-Val mutant expressed on CHO cell membrane assessed as inhibition of Ala-6,12 orexin-A-induced calcium increase preincubated for 5 mins prior to Ala-6,12 orexin-A addition measured at 1 sec intervals for 1 min by Fluo-4AM dye-based FLIPR assay
[18] = Half life in dog at 0.5 mg/kg, iv or 10 mg/kg, po; format: ADME, organism-based, Canis lupus familiaris; conditions: in vivo
[19] = Clearance in rhesus monkey at 2 mg/kg, iv or 10 mg/kg, po; format: ADME, organism-based, Macaca mulatta; conditions: in vivo
[20] = Half life in rat at 2 mg/kg, iv or 10 mg/kg, po; format: ADME, organism-based; conditions: in vivo
[21] = Protein binding in rhesus monkey plasma; format: ADME, cell-free, Macaca mulatta; conditions: read-out: PPB (converted)
Rattus norvegicus = species on record: Rattus norvegicus; experiment: Selectivity index, ratio of IC50 for rat OX2 receptor to IC50 for rat OX1 receptor
[22] = biological target: T4, Orexin/Hypocretin receptor type 1 (Homo sapiens, UniProt O43613); experiment: Binding affinity to OX1 receptor (unknown origin)
T4 sequence (O43613 whole entry): T2 sequence (whole entry)

[23] = Intrinsic clearance in rat liver microsomes; format: ADME; conditions: read-out: CLH
[24] = Oral bioavailability in dog at 3 mg/kg; format: ADME, organism-based, Canis lupus familiaris; conditions: in vivo
[25] = Intrinsic clearance in rhesus monkey liver microsomes; format: ADME, Macaca mulatta; conditions: read-out: CLH
[26] = Intrinsic clearance in dog liver microsomes; format: ADME, Canis lupus familiaris; conditions: read-out: CLH
[27] = Aqueous solubility of the compound at pH 7; format: physicochemical; conditions: aqueous medium
[28] = biological target: T2, Orexin/Hypocretin receptor type 1 (Homo sapiens); experiment: Binding affinity to OX1 receptor (unknown origin) assessed as association rate constant
[29] = Clearance in rat at 2 mg/kg, iv; format: ADME, organism-based; conditions: in vivo
[30] = Protein binding in rat plasma; format: ADME, cell-free; conditions: read-out: PPB (converted)
[31] = biological target: T5, Orexin/Hypocretin receptor type 1 (Rattus norvegicus, UniProt P56718); experiment: Antagonist activity at rat OX1 receptor assessed as inhibition of Ala-6,12 orexin-A-induced calcium increase preincubated for 5 mins prior to Ala-6,12 orexin-A addition measured at 1 sec intervals for 1 min by Fluo-4AM dye-based FLIPR assay; format: functional
T5 sequence (P56718 whole entry): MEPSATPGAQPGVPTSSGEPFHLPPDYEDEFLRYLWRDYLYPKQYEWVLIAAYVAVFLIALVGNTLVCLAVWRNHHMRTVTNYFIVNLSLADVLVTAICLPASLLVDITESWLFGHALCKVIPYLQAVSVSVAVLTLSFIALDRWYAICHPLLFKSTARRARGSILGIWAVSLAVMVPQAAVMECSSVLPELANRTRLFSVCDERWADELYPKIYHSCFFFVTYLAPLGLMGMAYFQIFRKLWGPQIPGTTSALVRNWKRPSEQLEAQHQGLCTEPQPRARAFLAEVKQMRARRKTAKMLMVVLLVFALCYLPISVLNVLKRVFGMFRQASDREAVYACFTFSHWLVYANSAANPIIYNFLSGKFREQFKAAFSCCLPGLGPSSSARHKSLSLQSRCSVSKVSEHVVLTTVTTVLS

[32] = Oral bioavailability in rhesus monkey at 10 mg/kg; format: ADME, organism-based, Macaca mulatta; conditions: in vivo
[33] = Solubility of the compound; format: physicochemical
[34] = biological target: Voltage-dependent L-type calcium channel subunit alpha-1C (Homo sapiens, UniProt Q13936); experiment: Inhibition of Cav1.2 (unknown origin)
[35] = biological target: Sodium channel protein type 5 subunit alpha (Homo sapiens, UniProt Q14524); experiment: Inhibition of Nav1.5 (unknown origin)
Chain of Sodium channel protein type 5 subunit alpha (Q14524 whole entry): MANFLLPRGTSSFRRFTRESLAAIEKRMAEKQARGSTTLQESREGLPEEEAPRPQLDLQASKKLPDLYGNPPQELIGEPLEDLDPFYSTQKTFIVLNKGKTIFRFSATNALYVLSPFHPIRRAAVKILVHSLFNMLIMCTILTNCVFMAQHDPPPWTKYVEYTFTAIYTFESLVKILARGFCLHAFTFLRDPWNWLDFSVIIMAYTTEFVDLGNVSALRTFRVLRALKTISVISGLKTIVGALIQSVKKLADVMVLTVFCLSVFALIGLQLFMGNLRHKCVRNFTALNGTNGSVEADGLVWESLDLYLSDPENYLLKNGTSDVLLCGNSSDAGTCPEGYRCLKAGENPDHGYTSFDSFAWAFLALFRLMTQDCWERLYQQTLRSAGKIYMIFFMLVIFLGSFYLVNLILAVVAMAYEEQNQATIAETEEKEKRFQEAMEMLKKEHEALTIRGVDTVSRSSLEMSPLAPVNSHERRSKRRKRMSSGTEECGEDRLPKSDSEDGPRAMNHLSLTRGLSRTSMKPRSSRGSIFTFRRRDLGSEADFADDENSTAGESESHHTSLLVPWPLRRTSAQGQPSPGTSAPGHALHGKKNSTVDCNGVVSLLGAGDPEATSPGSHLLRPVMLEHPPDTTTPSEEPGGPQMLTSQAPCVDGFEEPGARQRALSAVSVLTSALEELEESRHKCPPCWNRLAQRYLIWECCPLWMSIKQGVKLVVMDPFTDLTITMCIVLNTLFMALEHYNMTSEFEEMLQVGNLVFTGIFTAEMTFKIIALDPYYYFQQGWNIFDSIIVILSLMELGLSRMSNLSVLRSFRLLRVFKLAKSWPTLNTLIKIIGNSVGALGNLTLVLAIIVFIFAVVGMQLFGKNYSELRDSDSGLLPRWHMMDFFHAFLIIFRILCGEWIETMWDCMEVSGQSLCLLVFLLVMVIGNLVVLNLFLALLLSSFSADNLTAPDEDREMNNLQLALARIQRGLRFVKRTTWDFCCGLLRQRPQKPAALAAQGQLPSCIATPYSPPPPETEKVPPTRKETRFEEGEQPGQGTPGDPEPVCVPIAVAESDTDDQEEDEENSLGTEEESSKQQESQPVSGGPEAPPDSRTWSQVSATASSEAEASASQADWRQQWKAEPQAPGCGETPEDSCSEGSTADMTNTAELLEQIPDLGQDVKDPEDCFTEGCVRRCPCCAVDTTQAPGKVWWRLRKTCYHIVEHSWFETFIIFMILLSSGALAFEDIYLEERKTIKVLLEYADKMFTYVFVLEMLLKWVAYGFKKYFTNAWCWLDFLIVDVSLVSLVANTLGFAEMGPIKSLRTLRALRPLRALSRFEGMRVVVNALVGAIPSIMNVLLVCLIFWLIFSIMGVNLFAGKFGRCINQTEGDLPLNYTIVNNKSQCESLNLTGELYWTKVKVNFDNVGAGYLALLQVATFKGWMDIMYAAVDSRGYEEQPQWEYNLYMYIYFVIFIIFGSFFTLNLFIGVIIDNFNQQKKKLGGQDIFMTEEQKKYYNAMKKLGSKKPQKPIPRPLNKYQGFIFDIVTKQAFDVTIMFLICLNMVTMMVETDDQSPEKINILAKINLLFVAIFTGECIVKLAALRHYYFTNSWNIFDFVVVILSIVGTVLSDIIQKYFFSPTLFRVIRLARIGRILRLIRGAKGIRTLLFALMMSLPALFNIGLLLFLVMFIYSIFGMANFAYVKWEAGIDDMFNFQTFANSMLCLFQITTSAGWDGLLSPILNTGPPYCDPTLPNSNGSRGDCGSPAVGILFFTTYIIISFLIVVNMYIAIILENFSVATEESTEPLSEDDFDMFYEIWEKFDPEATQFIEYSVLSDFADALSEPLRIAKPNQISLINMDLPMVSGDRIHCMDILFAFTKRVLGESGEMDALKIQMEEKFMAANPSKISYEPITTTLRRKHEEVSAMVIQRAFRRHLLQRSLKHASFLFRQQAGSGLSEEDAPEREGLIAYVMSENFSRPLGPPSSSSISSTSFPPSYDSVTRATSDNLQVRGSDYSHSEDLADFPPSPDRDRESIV

Chain of Voltage-dependent L-type calcium channel subunit alpha-1C (Q13936 whole entry): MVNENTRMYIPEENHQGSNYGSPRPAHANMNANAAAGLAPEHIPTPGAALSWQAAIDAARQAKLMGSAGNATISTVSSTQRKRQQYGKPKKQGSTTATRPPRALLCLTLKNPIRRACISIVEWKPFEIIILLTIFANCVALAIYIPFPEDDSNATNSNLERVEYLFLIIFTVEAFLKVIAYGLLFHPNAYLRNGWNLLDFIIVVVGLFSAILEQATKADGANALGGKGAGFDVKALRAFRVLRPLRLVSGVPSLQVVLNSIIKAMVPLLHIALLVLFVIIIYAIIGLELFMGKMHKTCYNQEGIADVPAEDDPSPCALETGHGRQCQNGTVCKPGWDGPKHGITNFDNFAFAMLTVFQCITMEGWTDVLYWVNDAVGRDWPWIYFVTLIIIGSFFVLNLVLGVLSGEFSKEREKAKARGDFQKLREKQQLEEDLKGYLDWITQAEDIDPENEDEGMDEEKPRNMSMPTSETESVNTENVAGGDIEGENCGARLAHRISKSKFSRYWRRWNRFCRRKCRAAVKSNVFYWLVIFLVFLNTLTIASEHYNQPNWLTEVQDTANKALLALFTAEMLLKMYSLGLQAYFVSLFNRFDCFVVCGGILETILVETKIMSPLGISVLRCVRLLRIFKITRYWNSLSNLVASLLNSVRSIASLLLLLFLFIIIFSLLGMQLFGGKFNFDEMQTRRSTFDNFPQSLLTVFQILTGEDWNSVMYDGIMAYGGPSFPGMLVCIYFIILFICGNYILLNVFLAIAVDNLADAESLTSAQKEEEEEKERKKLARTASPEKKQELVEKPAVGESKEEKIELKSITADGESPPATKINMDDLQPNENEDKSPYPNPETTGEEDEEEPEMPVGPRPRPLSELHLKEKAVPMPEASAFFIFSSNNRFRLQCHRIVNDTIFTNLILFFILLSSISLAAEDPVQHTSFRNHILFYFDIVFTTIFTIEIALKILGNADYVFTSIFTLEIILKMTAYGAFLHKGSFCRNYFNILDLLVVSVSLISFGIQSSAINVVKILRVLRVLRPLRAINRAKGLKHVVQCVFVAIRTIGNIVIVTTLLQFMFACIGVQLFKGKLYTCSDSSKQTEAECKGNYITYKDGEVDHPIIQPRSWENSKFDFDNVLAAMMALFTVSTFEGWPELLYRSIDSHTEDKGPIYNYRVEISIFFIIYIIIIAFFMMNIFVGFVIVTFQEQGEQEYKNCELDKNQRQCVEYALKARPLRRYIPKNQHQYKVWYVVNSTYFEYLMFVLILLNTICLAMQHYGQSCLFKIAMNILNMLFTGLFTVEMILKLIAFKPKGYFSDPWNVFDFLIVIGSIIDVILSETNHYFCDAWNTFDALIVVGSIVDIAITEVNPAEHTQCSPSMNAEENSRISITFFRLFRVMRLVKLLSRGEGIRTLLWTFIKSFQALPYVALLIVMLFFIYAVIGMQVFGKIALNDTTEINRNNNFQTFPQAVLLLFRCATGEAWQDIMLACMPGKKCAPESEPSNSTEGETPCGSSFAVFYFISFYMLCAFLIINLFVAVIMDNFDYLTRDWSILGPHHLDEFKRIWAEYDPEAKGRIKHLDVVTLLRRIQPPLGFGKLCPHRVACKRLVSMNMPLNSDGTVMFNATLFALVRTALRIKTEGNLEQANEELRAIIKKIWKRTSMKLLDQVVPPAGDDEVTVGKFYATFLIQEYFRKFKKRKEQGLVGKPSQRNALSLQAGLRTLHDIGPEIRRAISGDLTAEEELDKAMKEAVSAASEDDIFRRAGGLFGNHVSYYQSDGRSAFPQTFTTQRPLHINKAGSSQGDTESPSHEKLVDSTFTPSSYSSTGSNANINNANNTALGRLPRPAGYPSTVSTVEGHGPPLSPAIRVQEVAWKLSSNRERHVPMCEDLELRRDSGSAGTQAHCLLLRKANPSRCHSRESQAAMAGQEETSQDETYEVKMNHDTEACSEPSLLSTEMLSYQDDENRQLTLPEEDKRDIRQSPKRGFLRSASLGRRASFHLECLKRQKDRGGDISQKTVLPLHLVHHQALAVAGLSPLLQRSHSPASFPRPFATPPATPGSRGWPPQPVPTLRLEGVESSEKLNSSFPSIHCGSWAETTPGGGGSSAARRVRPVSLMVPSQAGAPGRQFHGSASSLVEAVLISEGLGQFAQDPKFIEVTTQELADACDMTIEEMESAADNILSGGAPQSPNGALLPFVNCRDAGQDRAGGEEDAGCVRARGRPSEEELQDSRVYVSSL

O=C(c1ccccc1-n1cccn1)N1CCC(F)(F)[C@@H](Oc2ccc3ccccc3n2)C1
Ki [1]: 0.48 nM | Ki (Orexin receptor type 2 [2]): 271 nM | Ratio Ki (CHO): 564 | Ratio Ki [3]: 2

O=C(c1nccc2[nH]cnc12)N1CCC(F)(F)[C@@H](Oc2ccc3ccccc3n2)C1
solubility [4]: 192 µM (≈ 78.6 µg/mL) | Papp [5]: 33 ×10⁻⁶ cm/s | half-life [6]: 120 min | IC50 (Orexin receptor type 2 [7]): > 10 µM | Drug metabolism [8]: Metabolite_Notdetected | IC50 (Orexin receptor type 2 [9]): > 10 µM | CLint scaled [10]: 55 mL/min/kg | fraction unbound [11]: 0.2 | K [12]: 0.21 s⁻¹ | fraction unbound [13]: 0.14 | Ratio IC50 [14]: 3 to 4 | Ki [1]: 5.2 nM | bioavailability [15]: 22% | clearance [16]: 12 mL/min/kg | IC50 [17]: 58 nM | half-life [18]: 60 min | clearance [19]: 25 mL/min/kg | Ki (Orexin receptor type 2 [2]): 2140 nM | half-life [20]: 192 min | fraction unbound [21]: 0.16 | Ratio Ki (CHO): 411 | Ratio IC50 (Rattus norvegicus): > 625 | Kd [22]: 4.74 nM | CLint scaled [23]: 267 mL/min/kg | bioavailability [24]: 63% | CLint scaled [25]: 189 mL/min/kg | CLint scaled [26]: < 75 mL/min/kg | solubility [27]: 182 µM (≈ 74.5 µg/mL) | K [28]: 4.43 ×10⁷ /M/s | clearance [29]: 45 mL/min/kg | fraction unbound [30]: 0.17 | IC50 [31]: 16 nM | bioavailability [32]: 16%

O=C(c1cccc(-n2ccnn2)c1)N1CCC(F)(F)[C@@H](Oc2ccc3ccccc3n2)C1
solubility [33]: Soluble | Drug metabolism [8]: Metabolite_Detected | Ki [1]: 3.5 nM | bioavailability [15]: < 1% | Ki (Orexin receptor type 2 [2]): 4310 nM | Ratio Ki (CHO): 1230 | CLint scaled [23]: 1200 mL/min/kg | clearance [29]: 81 mL/min/kg

O=C(c1ccccc1-n1nccn1)N1CCC(F)(F)[C@@H](Oc2ccc3ccccc3n2)C1
solubility [4]: < 26 µM | INH [34]: 3.8 µM | IC50 (Orexin receptor type 2 [7]): 1.31 to 4.18 µM | INH [35]: 6.7 µM | IC50 (Orexin receptor type 2 [9]): 4.18 µM | fraction unbound [11]: < 0.01 | fraction unbound [13]: < 0.01 | Ki [1]: 1.3 nM | IC50 [17]: 89 nM | Ratio Ki (CHO): 400 to 401 | Ratio IC50 (Rattus norvegicus): 119 | solubility [27]: < 26 µM | IC50 [31]: 11 nM

O=C(c1cccc2[nH]ncc12)N1CCC(F)(F)[C@@H](Oc2ccc3ccccc3n2)C1
Ki [1]: 2.6 nM | Ki (Orexin receptor type 2 [2]): > 1930 nM | Ratio Ki (CHO): > 744 | CLint scaled [23]: 761 mL/min/kg | clearance [29]: 87.5 mL/min/kg

O=C(c1ccnc2[nH]ccc12)N1CCC(F)(F)[C@@H](Oc2ccc3ccccc3n2)C1
solubility [4]: > 150 µM | inhibition (INH) [34]: Active | inhibition (INH) [35]: Active | Ki [1]: 2.5 nM | Ki (Orexin receptor type 2 [2]): 1560 nM | Ratio Ki (CHO): 626 | solubility [27]: > 150 µM

O=C(c1nccc2[nH]ccc12)N1CCC(F)(F)[C@@H](Oc2ccc3ccccc3n2)C1
solubility [4]: > 150 µM | inhibition (INH) [34]: Active | inhibition (INH) [35]: Active | Ki [1]: 1.6 nM | Ki (Orexin receptor type 2 [2]): 521 nM | Ratio Ki (CHO): 325 | solubility [27]: > 150 µM

O=C(c1cccc2[nH]cnc12)N1CCC(F)(F)[C@@H](Oc2ccc3ccccc3n2)C1
Ki [1]: 3.8 nM | bioavailability [15]: 10% | Ki (Orexin receptor type 2 [2]): 1410 nM | Ratio Ki (CHO): 371 | CLint scaled [23]: 829 mL/min/kg | clearance [29]: 69 mL/min/kg
